These results are taken from patent US10806794B2, “Protease inhibitors having enhanced features” (priority 2008, dated 2020).

Data set [1] in a line: Metabolic stability in human liver microsomes.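 As to t1/2: microsomal protein 0.5 mg/mL.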 Particulars: human liver microsomes, 3 μM. In short, it runs like this:
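Substrate depletion: compounds at 3 μM final with pooled mixed-sex human liver microsomes (0.5 mg/mL) in 0.1 M phosphate pH 7.4 at 37 °C. Remaining parent quantified by LC-MS/MS.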
Background: Liver microsomes are vesicles of endoplasmic reticulum, rich in cytochrome P450 enzymes.

In another data set the test system is human hepatocytes. Briefly: Metabolic stability in cryopreserved human hepatocytes. Particulars: human hepatocytes, 0.1 uM, up to four hours. Summed up: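 Test compounds at 0.1 μM or 3 μM incubated with cryopreserved human hepatocytes at 0.5×10^6 viable cells/mL. Sampling up to four hours (0.1 μM) or one or two hours (3 μM), methanol quench, then remaining parent measured by cassette LC-MS/MS.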

Data set [2] relates to cynomolgus monkey hepatocytes. Briefly: Metabolic stability in cynomolgus monkey hepatocytes. It is filed as in vitro ADME. The note with it: 0.1 uM.
The subject of data set [3] is Sprague-Dawley rat hepatocytes. The data set can be described thus: Metabolic stability in Sprague-Dawley rat hepatocytes. In kind it is in vitro ADME. Particulars: 0.1 uM.
In a further data set the test system is beagle dog hepatocytes. The data set can be described thus: Metabolic stability in beagle dog hepatocytes. The note with it: 0.1 uM. It is filed as in vitro ADME.
The subject of data set [4] is monocyte-derived dendritic cells. Briefly: Cytotoxicity in monocyte-derived dendritic cells (XTT). It is filed as cell-based, human. The source says:
Cell viability is directly proportional to the amount of reduced XTT product formed.

The next data set deals with CYP2C9 (Homo sapiens (Human), UniProt P11712). The note with it: microsomes.
Chain of CYP2C9 (P11712 whole entry): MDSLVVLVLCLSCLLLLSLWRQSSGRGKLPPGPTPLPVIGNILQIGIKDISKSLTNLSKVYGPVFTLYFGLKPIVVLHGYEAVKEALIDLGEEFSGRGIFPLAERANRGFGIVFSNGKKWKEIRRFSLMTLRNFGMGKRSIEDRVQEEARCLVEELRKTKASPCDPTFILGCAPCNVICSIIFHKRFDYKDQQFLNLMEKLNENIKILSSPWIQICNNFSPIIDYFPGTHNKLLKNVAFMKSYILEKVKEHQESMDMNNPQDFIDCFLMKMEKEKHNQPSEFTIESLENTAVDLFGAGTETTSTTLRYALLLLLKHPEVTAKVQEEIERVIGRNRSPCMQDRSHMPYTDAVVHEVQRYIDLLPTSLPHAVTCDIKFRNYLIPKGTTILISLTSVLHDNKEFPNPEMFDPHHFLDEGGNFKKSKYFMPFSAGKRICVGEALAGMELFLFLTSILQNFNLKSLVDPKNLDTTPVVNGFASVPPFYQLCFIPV
For the next data set, the target named is CYP3A4 (Homo sapiens (Human), UniProt P08684). Briefly: CYP450 inhibition in human liver microsomes: CYP3A4.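 Also: incubation at 37 °C started by adding 1 mM NADPH, with formation of the probe metabolite measured via LC-MS/MS or fluorescent detection.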
Chain of CYP3A4 (P08684 whole entry): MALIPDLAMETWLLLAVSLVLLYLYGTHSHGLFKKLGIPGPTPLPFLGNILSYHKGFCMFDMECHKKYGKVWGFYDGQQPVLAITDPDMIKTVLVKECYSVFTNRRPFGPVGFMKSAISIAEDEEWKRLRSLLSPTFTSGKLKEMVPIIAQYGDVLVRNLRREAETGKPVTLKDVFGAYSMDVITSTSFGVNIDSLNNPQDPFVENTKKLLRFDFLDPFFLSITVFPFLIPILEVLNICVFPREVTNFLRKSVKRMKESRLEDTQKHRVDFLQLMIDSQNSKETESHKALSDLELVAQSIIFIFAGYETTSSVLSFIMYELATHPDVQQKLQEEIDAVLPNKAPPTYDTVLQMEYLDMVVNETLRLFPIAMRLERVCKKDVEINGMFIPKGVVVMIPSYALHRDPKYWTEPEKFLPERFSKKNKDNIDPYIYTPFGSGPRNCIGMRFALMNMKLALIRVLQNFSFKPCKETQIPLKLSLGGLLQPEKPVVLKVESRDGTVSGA
Another data set deals with CYP2D6 (Homo sapiens (Human), UniProt P10635). The data set can be described thus: CYP450 inhibition in human liver microsomes: CYP2D6. The note with it: read-out: CYP2D6 IC50 Dextromethorphan; probe substrate dextromethorphan.
Chain of CYP2D6 (P10635 whole entry): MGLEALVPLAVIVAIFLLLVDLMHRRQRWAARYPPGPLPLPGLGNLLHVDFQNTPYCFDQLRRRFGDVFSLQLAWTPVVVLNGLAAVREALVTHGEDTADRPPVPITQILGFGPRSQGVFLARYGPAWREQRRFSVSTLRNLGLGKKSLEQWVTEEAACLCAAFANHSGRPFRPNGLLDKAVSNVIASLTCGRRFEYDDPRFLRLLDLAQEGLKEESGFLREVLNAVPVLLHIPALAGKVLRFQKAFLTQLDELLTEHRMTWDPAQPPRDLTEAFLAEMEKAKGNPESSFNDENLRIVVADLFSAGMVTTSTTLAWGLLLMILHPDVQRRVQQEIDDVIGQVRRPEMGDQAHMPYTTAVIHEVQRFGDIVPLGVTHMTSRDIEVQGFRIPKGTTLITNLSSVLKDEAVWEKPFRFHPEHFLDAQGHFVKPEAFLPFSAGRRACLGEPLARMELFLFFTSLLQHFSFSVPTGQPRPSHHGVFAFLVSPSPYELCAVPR
[5] abbreviates: read-out: CYP3A4 IC50 Midazolam, probe substrate midazolam.
Where [6] appears, read: read-out: CYP3A4 IC50 Testosterone, probe substrate testosterone.

Where two headings read alike, the source gives them in different places. Bounds are passed on as bounds.

By IC50 is commonly meant the point on the concentration scale where inhibition reaches its midpoint. Turning to `COCCOC(=O)NC(C(=O)NC(Cc1ccccc1)C(O)CN(Cc1ccc(-c2ccccn2)cc1)NC(=O)C(NC(=O)OC)C(C)(C)C)C(C)(C)C` (stereo not shown) [mono-mPEG1-Atazanavir], the “CLint ± SEM” value in data set [1] is 181 ± 0.640 μL/min/mg protein; in the data set on human hepatocytes, 15.3 ± 0.00173 μL/min/10^6 cells; in data set [2], 70.3 ± 0.0027 μL/min/10^6 cells; in data set [3] it was 82.5 ± 0.0100 μL/min/10^6 cells; in the data set with beagle dog hepatocytes, 31.1 ± 0.000512 μL/min/10^6 cells. The t1/2 in data set [1] was 7.65 min; with human hepatocytes it was 90.5 min; in data set [2], 0.328 h; in data set [3], 16.8 min; in the data set with beagle dog hepatocytes, 0.742 h. Moreover, in data set [4], the TC50 was over 1.0 µM. The IC50 against CYP2C9 is over 25 µM; on CYP3A4 (setting [5]) it was 2.56 µM; at CYP3A4 (setting [6]), 10.4 µM; at CYP2D6 it was 18.3 µM.
As to `COCCOCCOCCOCCOCCOC(=O)NC(C(=O)NC(Cc1ccccc1)C(O)CN(Cc1ccc(-c2ccccn2)cc1)NC(=O)C(NC(=O)OC)C(C)(C)C)C(C)(C)C` (stereo not shown) [mono-mPEG5-Atazanavir], the results for the “CLint ± SEM” value (in [1]; in the data set on human hepatocytes; in data set [2]) were 108 ± 9.75 μL/min/mg protein, 3.98 ± 0.000356 μL/min/10^6 cells and 13.8 ± 0.00163 μL/min/10^6 cells, respectively. Also, the t1/2 in [1] was determined as 12.9 min; with human hepatocytes, 348 min; in [2] it was 1.67 h. For the same molecule, in data set [4], the TC50 was over 1.0 µM. Besides, the IC50 is 23.7 µM against CYP2C9, 9.35 µM on CYP3A4 (setting [5]), over 25 µM at CYP3A4 (setting [6]) and 22.2 µM at CYP2D6.
With `COCCOCCOCCOCCOCCOCCOC(=O)NC(C(=O)NC(Cc1ccccc1)C(O)CN(Cc1ccc(-c2ccccn2)cc1)NC(=O)C(NC(=O)OC)C(C)(C)C)C(C)(C)C` (stereo not shown) [mono-mPEG6-Atazanavir], the “CLint ± SEM” value in data set [1] amounted to 112 ± 1.10 μL/min/mg protein; with human hepatocytes, 0.778 ± 0.000211 μL/min/10^6 cells; in data set [2], 0.245 ± 0.000245 μL/min/10^6 cells; in the data set on beagle dog hepatocytes, 0.209 ± 0.000143 μL/min/10^6 cells. Besides, the t1/2 in data set [1] came to 12.3 min; in the data set on human hepatocytes, 1781 min; in data set [2] it was 94.33 h; with beagle dog hepatocytes, 110.6 h. The TC50 in data set [4] is over 1.0 µM. For the same molecule, the IC50 is over 25 µM against CYP2C9, 16.7 µM at CYP3A4 (setting [5]), over 25 µM at CYP3A4 (setting [6]) and over 25 µM on CYP2D6.
Regarding `COCCOCCOCCOCCOCCOCCOCCOC(=O)NC(C(=O)NC(Cc1ccccc1)C(O)CN(Cc1ccc(-c2ccccn2)cc1)NC(=O)C(NC(=O)OC)C(C)(C)C)C(C)(C)C` (stereo not shown) [mono-mPEG7-Atazanavir], the “CLint ± SEM” value in [1] turned out to be 71.0 ± 5.63 μL/min/mg protein. In data set [1], this molecule yielded a t1/2 of 19.5 min. Besides, the TC50 in data set [4] is over 1.0 µM. Further, the concentration for half-maximal inhibition (IC50) against CYP2C9 was over 25 µM; at CYP3A4 (setting [5]), 20.1 µM; at CYP3A4 (setting [6]), over 25 µM; on CYP2D6 it was over 25 µM.
